The record followed here is patent US6653313B2, “1,4-dihydropyridine compounds as bradykinin antagonists” (Warner-Lambert Company LLC, priority 2000, dated 2003).

Counter-ions that a name gives are not always drawn.

The melting point is the temperature, or range, at which the solid turns liquid. As for `COC(=O)C1=C(CCc2ccccc2COCCN2CCCC2)NC(CC(=O)N2CCN(C3CC4CCC(C3)N4C)CC2)=C(C(=O)OC)C1c1c(Cl)cccc1Cl.O=C(O)CCC(=O)O` (stereo not shown), the melting point was 168 °C (dec.).
In turn, `COC(=O)C1=C(CCc2ccccc2NS(C)(=O)=O)NC(CC(=O)N2CCN(C3CC4CCC(C3)N4C)CC2)=C(C(=O)OC)C1c1c(Cl)cccc1Cl` (stereo not shown) (as salt: HCl) gave a melting point of 143 °C.
As for `COC(=O)C1=C(CCc2ccccc2NS(=O)(=O)C(F)(F)F)NC(CC(=O)N2CCN(C3CC4CCC(C3)N4C)CC2)=C(C(=O)OC)C1c1c(Cl)cccc1Cl` (stereo not shown) (as salt: HCl), the figure is 218 to 220 °C (dec.).
As to `COC(=O)C1=C(CCc2ccccc2C(=O)N2CCNCC2)NC(CC(=O)N2CCN(C3CC4CCC(C3)N4C)CC2)=C(C(=O)OC)C1c1c(Cl)cccc1Cl` (stereo not shown) (as salt: HCl), the melting point is 198 to 200 °C (dec.).
`CCN(CC)Cc1ccccc1CCC1=C(C(=O)OC)C(c2c(Cl)cccc2Cl)C(C(=O)OC)=C(CC(=O)N2CCN(C3CC4CCC(C3)N4C)CC2)N1` (stereo not shown) (as salt: HCl): the melting point was 77 to 79 °C (dec.).
As for `CNC(=O)CCC(=O)NCc1ccccc1CCC1=C(C(=O)OC)C(c2c(Cl)cccc2Cl)C(C(=O)OC)=C(CC(=O)N2CCN(C3CC4CCC(C3)N4C)CC2)N1` (stereo not shown) (as salt: citrate), the figure is 158 to 160 °C (dec.).
As for `CCNCCOCc1ccccc1CCC1=C(C(=O)OC)C(c2c(Cl)cccc2Cl)C(C(=O)OC)=C(CC(=O)N2CCN(C34CCCC(CC3)N4C)CC2)N1` (stereo not shown) (as salt: citrate), the figure is 151 °C.
